The assay relates to ras-transformed C3H cells (C3H10T1/2 derived tumors). Kind of assay: Tumor growth in C3H mice bearing subcutaneous ras-transformed C3H cell tumors, treated with reovirus and/or cisplatin. To be noted: syngeneic tumors measured daily from Day 0, cisplatin 2.5 mg/kg tail vein Days 10, 16, 22, reovirus 5×10^8 PFUs i.v. Days 0, 6, 12, 18. Type of assay: in vivo. The text has this:
C3H mice (Charles River) were implanted subcutaneously with 1.0×10^6 […] ras-transformed C3H cells (a gift of D. Edwards, University of Calgary) and allowed to develop tumors. The Dearing strain of reovirus serotype 3 used in these studies was propagated in suspension cultures of L cells and purified according to Smith (Smith et al., 1969) with the exception that β-mercaptoethanol (β-ME) was omitted from the extraction buffer. The particle/PFU ratio for purified reovirus was typically 100/1.
The tumor bearing mice were treated with 4 different regimes as described below:
For animals which received reovirus (Series 3-4), 5×10^8 PFUs of reovirus (in 20 μl of saline) were injected intravenously via the tail vein of the animals on Days 0, 6, 12, and 18. […] Cisplatin was injected into the tail vein on Days 10, 16 and 22 at a dose of 2.5 mg per kilogram of body weight. The tumors were measured daily from Day 0 to assess growth rate of the tumors.

SMILES strings stand for the structures. “Also recorded” adds a separate entry of the source.

Take `N.N.[Cl][Pt][Cl]` [cisplatin]: the “effect on growth rate of the tumors” value is listed as “essentially no inhibitory effects; also recorded: no effect on the tumor; also recorded: growth rate that was essentially the same as untreated tumors”.

The values are drawn from patent publication US8658158B2, “Sensitization of chemotherapeutic agent resistant neoplastic cells with a virus” (Oncolytics Biotech Inc., priority 2001, dated 2014).
